Reference: patent US20260115161A1, “2-HYDROXY-OCTADECENE-9-CIS-OATE FOR USE IN THE TREATMENT OF ONCOLOGICAL PATHOLOGIES AND NEUROPATHIC PAIN” (Laminar Pharmaceuticals S.A., priority 2023, published 2026)

Assays:
NCI-H2021 Mesothelioma = assay: Cell line assay, HOCOS combinations, NCI-H2021; format: cell-based, human; conditions: NCI-H2021, compound alone
Experimental: (§1) To study the possible use of HOCOS in combinatorial therapies, human glioblastoma cells of lines U118, SNB19, SF268, human mesothelioma cells NCI-H2021 and pancreatic cancer cells BxPC-3 (pancreatic adenocarcinoma) and MIAPaCa-2 ([…]) were cultured in the absence or presence of different chemotherapeutic agents and combinations of HOCOS with said compounds.

SNB19 Glioblastoma = assay: cells; conditions: Homo sapiens, SNB-19
Experimental: as §1

[1] = test system: neuropathic pain due to spinal cord injury; conditions: Cardenas et al., cited from earlier work
U118 Glioblastoma = assay: Cell line assay, HOCOS combinations, U118; format: cell-based; conditions: Homo sapiens; U118, compound alone
Experimental: as §1

A549 Lung = assay: Cell line assay, HOCOS combinations, A549; format: cell-based; conditions: Homo sapiens; A549, compound alone
BxPC-3 Pancreas = assay: Cell line assay, HOCOS combinations, BxPC-3; format: cell-based; conditions: Homo sapiens; BxPC-3, compound alone
Experimental: as §1

N.N.[Cl][Pt][Cl] [Cisplatin] showed an IC50 (NCI-H2021 Mesothelioma) of 16.4 µM.

With Cc1ncc(C[n+]2csc(CCO)c2C)c(N)n1 [Thiamine] the IC50 (SNB19 Glioblastoma) was 15400 µM.

In the case of CC(C)C[C@H](CN)CC(=O)O [pregabalin], the “percentage of patients responding, pregabalin group” value ([1]; 33% in the placebo group) is listed as 48%, the “mean reduction of neuropathic pain” value [1] is listed as 1.2 points on the VAS scale and the “patients responding to treatment” value [1] is listed as “approximately 50%”. For the same compound, the “difference between pregabalin and placebo groups” value ([1]; VAS scale) was 0.82 points.

Compound CCc1c2c(nc3ccc(OC(=O)N4CCC(N5CCCCC5)CC4)cc13)-c1cc3c(c(=O)n1C2)COC(=O)[C@]3(O)CC [Irinotecan] has an IC50 (U118 Glioblastoma) of 15 µM.

Compound C#Cc1cccc(Nc2ncnc3cc(OCCOC)c(OCCOC)cc23)c1 [Erlotinib] has an IC50 (A549 Lung) of 16 µM.

In the case of Nc1ccn([C@@H]2O[C@H](CO)[C@@H](O)C2(F)F)c(=O)n1 [Gemcitabine], the IC50 (BxPC-3 Pancreas) is reported as 0.0078 µM.
